According to patent US20240166663A1, “NOVEL PYRIMIDINE DERIVATIVE SHOWING INHIBITION EFFECT ON GROWTH OF CANCER CELLS” (ONCOBIX CO., LTD., priority 2021, published 2024):

Target: EXON 20 Insertion(NPG) Ba/F3 Cell (Homo sapiens, UniProt P00533, INS772GNP, cells depend on it)
Experiment: Measurement of cancer cell growth inhibitory effect (MTT assay)
Type: cell-based, Murine
Details: Ba/F3 cells expressing EGFR with NPG added at D770_N771, 72 hours treatment, read at 595 nm, read-out: EXON 20 Insertion(NPG) Ba/F3 Cell(IC50)
Text: Since there is no commercially available lung cancer cell line with EGFR insertion mutation, a method of inserting 3 to 4 amino acids at each site using site direct mutagenesis in a wild type EGFR expression vector was attempted. In the present invention, first, a vector with three amino acids of NPG added to the D770_N771 site with the highest frequency was used, and Ba/F3 cell line was used for expression of these genes.
When the oncogenic mutant EGFR is expressed, dependence on the mutant EGFR for cell growth and apoptosis occurs without IL-3. Therefore, substances that show effective inhibition of mutant EGFR suppress cell growth and induce apoptosis, so the anticancer effect of cells was analyzed through MTT assay.
1×10^4 cells of the previously constructed stable cells were put into a 96 well plate and incubated overnight, and then the compound of Example was dose dependently treated. After 72 hours, MTT reagent was added, and after 3 hours stop buffer (10% SDS) was added. After 24 hours of incubation, the results were analyzed by reading at 595 nm. […] As a control drug, Mobocertinib was used.

EXON 20 Insertion(NPG) Ba/F3 Cell, sequence (P00533 with tags, fused parts or gaps INS772GNP): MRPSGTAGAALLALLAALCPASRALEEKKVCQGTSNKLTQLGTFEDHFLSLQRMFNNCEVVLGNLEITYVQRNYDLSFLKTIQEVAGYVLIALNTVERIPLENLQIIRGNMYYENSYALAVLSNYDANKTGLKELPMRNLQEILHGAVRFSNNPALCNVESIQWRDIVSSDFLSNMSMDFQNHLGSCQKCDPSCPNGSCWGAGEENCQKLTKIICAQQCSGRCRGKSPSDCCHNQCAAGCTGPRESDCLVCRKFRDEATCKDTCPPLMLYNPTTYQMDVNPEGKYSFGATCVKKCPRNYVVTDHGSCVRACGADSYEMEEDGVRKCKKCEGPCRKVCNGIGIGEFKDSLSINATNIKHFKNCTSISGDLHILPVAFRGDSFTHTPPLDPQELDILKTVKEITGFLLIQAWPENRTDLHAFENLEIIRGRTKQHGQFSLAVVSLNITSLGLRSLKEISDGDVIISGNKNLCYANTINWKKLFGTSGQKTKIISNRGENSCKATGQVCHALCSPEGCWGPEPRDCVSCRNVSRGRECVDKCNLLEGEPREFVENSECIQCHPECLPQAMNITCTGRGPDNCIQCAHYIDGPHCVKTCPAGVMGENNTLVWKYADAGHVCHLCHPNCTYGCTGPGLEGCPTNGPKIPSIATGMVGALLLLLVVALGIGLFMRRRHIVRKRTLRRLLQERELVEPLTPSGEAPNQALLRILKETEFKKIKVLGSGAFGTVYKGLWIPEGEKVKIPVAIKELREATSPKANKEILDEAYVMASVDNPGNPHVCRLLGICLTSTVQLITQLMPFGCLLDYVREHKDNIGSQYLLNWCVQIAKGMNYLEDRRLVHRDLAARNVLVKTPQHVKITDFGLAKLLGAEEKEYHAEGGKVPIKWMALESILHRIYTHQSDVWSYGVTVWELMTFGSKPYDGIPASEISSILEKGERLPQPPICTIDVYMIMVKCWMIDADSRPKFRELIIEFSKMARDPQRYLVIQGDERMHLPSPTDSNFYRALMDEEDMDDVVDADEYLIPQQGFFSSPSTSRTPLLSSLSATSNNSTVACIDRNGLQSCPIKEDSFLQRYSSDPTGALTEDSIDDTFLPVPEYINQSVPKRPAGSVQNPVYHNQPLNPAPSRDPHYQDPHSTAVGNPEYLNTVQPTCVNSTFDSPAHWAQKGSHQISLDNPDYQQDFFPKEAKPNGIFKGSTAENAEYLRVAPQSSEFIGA

GI50 [nM] | SMILES
25 to 50 | C=CC(=O)Nc1cc(Nc2cc(Nc3ccccc3-n3cccn3)ncn2)c(OC)cc1N1CC2COCC2C1 (centres unmarked) [Example 38, N-(5-((6-((2-(1H-pyrazol-1-yl)phenyl)amino)pyrimidin-4-yl)amino)-4-methoxy-2-(tetrahydro-1H-furo[3,4-c]pyrrol-5 (3H)-yl)phenyl)acrylamide]
< 25 | C=CC(=O)Nc1cc(Nc2cc(Nc3ccccc3-c3ccn(C)n3)ncn2)c(OCC(F)(F)F)cc1N(C)CCN(C)C [Example 10, N-(2-((2-(diamethylamino)ethyl)(methyl)amino)-5-((6-((2-(1-methyl-1H-pyrazol-3-yl)phenyl)amino)pyrimidin-4-yl)amino)-4-(2,2,2-trifluoroethoxy)phenyl)acrylamide]
25 to 50 | C=CC(=O)Nc1cc(Nc2cc(Nc3ccccc3-c3ccn(C)n3)ncn2)c(OC)cc1N1CCN(C)CC1 [Example 4, N-(4-methoxy-5-((6-((2-(1-methyl-1H-pyrazol-3-yl)phenyl)amino)pyrimidin-4-yl)amino)-2-(4-methylpiperizin-1-yl)phenyl)acrylamide]
25 to 50 | C=CC(=O)Nc1cc(Nc2ncc(C(=O)OC(C)C)c(Nc3ccccc3-c3ccn(C)n3)n2)c(OC)cc1N1CCOCC1 [Example 24, Isopropyl 2-((5-acrylamido-2-methoxy-4-morpholinophenyl)amino)-4-((2-(1-methyl-1H-pyrazol-3-yl)phenyl)amino)pyrimidin-5-carboxylate]
25 to 50 | C=CC(=O)Nc1cc(Nc2cc(Nc3ccccc3-c3ccn(C)n3)ncn2)c(OC)cc1N(C)[C@H]1CCN(C)C1 [Example 9, (S)-N-(4-methoxy-2-(methyl(1-methylpyrrolidin-3-yl)amino)-5-((6-((2-(1-methyl-1H-pyrazol-3-yl)phenyl)amino)pyrimidin-4-yl)amino)phenyl)acrylamide]
25 to 50 | C=CC(=O)Nc1cc(Nc2ncc(C(=O)OC3CC3)c(Nc3ccccc3-c3ccn(C)n3)n2)c(OC)cc1N(C)CCN(C)C [Example 22, cyclopropyl 2-((5-acrylamido-4-((2-(dimethylamino)ethyl)(methyl)amino)-2-methoxyphenyl)amino)-4-((2-(1-methyl-1H-pyrazol-3-yl)phenyl)amino)pyrimidin-5-carboxylate]
< 25 | C=CC(=O)Nc1cc(Nc2ncc(C(=O)OC(C)C)c(Nc3ccccc3-c3ccn(C)n3)n2)c(OC)cc1N(C)CCN(C)C [Example 16, Isopropyl 2-((5-acrylamido-4-((2-(dimethylamino)ethyl)(methyl)amino)-2-methoxyphenyl)amino)-4-((2-(1-methyl-1H-pyrazol-3-yl)phenyl)amino)pyrimidin-5-carboxylate]
< 25 | C=CC(=O)Nc1cc(Nc2ncc(C(=O)OC(C)C)c(Nc3ccccc3-n3cccn3)n2)c(OC)cc1N(C)CCN(C)C [Example 17, Isopropyl 4-((2-(1H-pyrazol-1-yl)phenyl)amino)-2-((5-acrylamido-4-((2-(dimethylamino)ethyl)(methyl)amino)-2-methoxyphenyl)amino)pyrimidin-5-carboxylate]
25 to 50 | C=CC(=O)Nc1cc(Nc2ncc(C)c(Nc3ccccc3-n3cccn3)n2)c(OC)cc1N(C)CCN(C)C [Example 14, N-(5-((4-((2-(1H-pyrazol-1-yl)phenyl)amino)-5-methylpyrimidin-2-yl)amino)-2-((2-(dimethylamino)ethyl)(methyl)amino)-4-methoxyphenyl)acrylamide]
25 to 50 | C=CC(=O)Nc1cc(Nc2ncc(C#N)c(Nc3ccccc3-c3ccn(C)n3)n2)c(OC)cc1N(C)CCN(C)C [Example 13, N-(5-((5-cyano-4-((2-(1-methyl-1H-pyrazol-3-yl)phenyl)amino)pyrimidin-2-yl)amino)-2-((2-(dimethylamino)ethyl)(methyl)amino)-4-methoxyphenyl)acrylamide]
25 to 50 | C=CC(=O)Nc1cc(Nc2cc(Nc3ccccc3-c3ccn(C)n3)ncn2)c(OC)cc1N1CC[C@H](N(C)C)C1 [Example 6, (S)-N-(2-(3-(dimethylamino)pyrrolidin-1-yl)-4-methoxy-5-((6-((2-(1-methyl-1H-pyrazol-3-yl)phenyl)amino)pyrimidin-4-yl)amino)phenyl)acrylamide]
25 to 50 | C=CC(=O)Nc1cc(Nc2cc(Nc3ccccc3-c3ccn(C)n3)ncn2)c(OCC)cc1N(C)CCN(C)C [Example 11]
25 to 50 | C=CC(=O)Nc1cc(Nc2ncc(C(=O)OCC)c(Nc3ccccc3-n3cccn3)n2)c(OC)cc1N(C)CCN(C)C [Example 21, ethyl 4-((2-(1H-pyrazol-1-yl)phenyl)amino)-2-((5-acrylamido-4-((2-(dimethylamino)ethyl)(methyl)amino)-2-methoxyphenyl)amino)pyrimidin-5-carboxylate]
< 25 | C=CC(=O)Nc1cc(Nc2cc(Nc3ccccc3-n3cccn3)ncn2)c(OC)cc1N(C)CCN(C)C [Example 2, N-(5-((6-((2-(1H-pyrazol-1-yl)phenyl)amino)pyrimidin-4-yl)amino)-2-((2-(dimethylamino)ethyl)(methyl)amino)-4-methoxyphenyl)acrylamide]

More lines, now with the values behind:

SMILES | GI50 [nM]
C=CC(=O)Nc1cc(Nc2ncc(Cl)c(Nc3ccccc3-c3ccn(C)n3)n2)c(OC)cc1N(C)CCN(C)C [Example 29, N-(5-((5-chloro-4-((2-(1-methyl-1H-pyrazol-3-yl)phenyl)amino)pyrimidin-2-yl)amino)-2-((2-(dimethylamino)ethyl)(methyl)amino)-4-methoxyphenyl)acrylamide] | < 25
C=CC(=O)Nc1cc(Nc2cc(Nc3ccccc3-n3cccn3)ncn2)c(OC)cc1N1C2CCC1COC2 [Example 39, N-(5-((6-((2-(1H-pyrazol-1-yl)phenyl)amino)pyrimidin-4-yl)amino)-2-(3-oxa-8-azabicyclo[3.2.1]octan-8-yl)-4-methoxyphenyl)acrylamide] | 25 to 50
C=CC(=O)Nc1cc(Nc2cc(Nc3ccccc3-c3ccn(C)n3)ncn2)c(OC(C)C)cc1N(C)CCN(C)C [Example 3, N-(2-((2-(dimethylamino)ethyl)(methyl)amino)-4-isopropoxy-5-((6-((2-(1-methyl-1H-pyrazol-3-yl)phenyl)amino)pyrimidin-4-yl)amino)phenyl)acrylamide] | 25 to 50
C=CC(=O)Nc1cc(Nc2ncc(C(=O)OC(C)C)c(Nc3ccccc3-c3ccn(C)n3)n2)c(OC)cc1N(C)[C@@H]1CCN(C)C1 [Example 27, Isopropyl(R)-2-((5-acrylamido-2-methoxy-4-(methyl(1-methylpyrrolidin-3-yl)amino)phenyl)amino)-4-((2-(1-methyl-1H-pyrazol-3-yl)phenyl)amino)pyrimidin-5-carboxylate] | 25 to 50
C=CC(=O)Nc1cc(Nc2cc(Nc3ccccc3-c3ccn(C)n3)ncn2)c(OC)cc1N(C)CCN(C)C [Example 1, N-(2-((2-(dimethylamino)ethyl)(methyl)amino)-4-methoxy-5-((6-((2-(1-methyl-1H-pyrazol-3-yl)phenyl)amino)pyrimidin-4-yl)amino)phenyl)acrylamide] | < 25
C=CC(=O)Nc1cc(Nc2ncc(C(=O)OC(C)C)c(-c3cn(C)c4ccccc34)n2)c(OC)cc1N(C)CCN(C)C [Mobocertinib, reference compound] | 50 to 500
C=CC(=O)Nc1cc(Nc2ncc(C(=O)OC(C)C)c(Nc3ccccc3-c3ccn(C)n3)n2)c(OC)cc1N(C)[C@H]1CCN(C)C1 [Example 28, Isopropyl(S)-2-((5-acrylamido-2-methoxy-4-(methyl(1-methylpyrrolidin-3-yl)amino)phenyl)amino)-4-((2-(1-methyl-1H-pyrazol-3-yl)phenyl)amino)pyrimidin-5-carboxylate] | 25 to 50
C=CC(=O)Nc1cc(Nc2ncc(C(=O)OC)c(Nc3ccccc3-c3ccn(C)n3)n2)c(OC)cc1N(C)CCN(C)C [Example 18, methyl 2-((5-acrylamido-4-((2-(dimethylamino)ethyl)(methyl)amino)-2-methoxyphenyl)amino)-4-((2-(1-methyl-1H-pyrazol-3-yl)phenyl)amino)pyrimidin-5-carboxylate] | 25 to 50
C=CC(=O)Nc1cc(Nc2ncc(Cl)c(Nc3ccccc3-c3ccn(C)n3)n2)c(OC)cc1N1CC[C@H](N(C)C)C1 [Example 33, (S)-N-(5-((5-chloro-4-((2-(1-methyl-1H-pyrazol-3-yl)phenyl)amino)pyrimidin-2-yl)amino)-2-(3-(dimethylamino)pyrrolidin-1-yl)-4-methoxyphenyl)acrylamide] | 25 to 50
C=CC(=O)Nc1cc(Nc2ncc(C(=O)OCC)c(Nc3ccccc3-c3ccn(C)n3)n2)c(OC)cc1N(C)CCN(C)C [Example 20, ethyl 2-((5-acrylamido-4-((2-(dimethylamino)ethyl)(methyl)amino)-2-methoxyphenyl)amino)-4-((2-(1-methyl-1H-pyrazol-3-yl)phenyl)amino)pyrimidin-5-carboxylate] | 25 to 50
C=CC(=O)Nc1cc(Nc2ncc(Cl)c(Nc3ccccc3-c3ccn(C)n3)n2)c(OC)cc1N1CCOCC1 [Example 32, N-(5-((5-chloro-4-((2-(1-methyl-1H-pyrazol-3-yl)phenyl)amino)pyrimidin-2-yl)amino)-4-methoxy-2-morpholinophenyl)acrylamide] | 25 to 50
C=CC(=O)Nc1cc(Nc2ncc(C(=O)OC(C)C)c(Nc3ccccc3-c3ccn(C)n3)n2)c(OC)cc1N1CC[C@@H](N(C)C)C1 [Example 26, Isopropyl(R)-2-((5-acrylamido-4-(3-(dimethylamino)pyrrolidin-1-yl)-2-methoxyphenyl)amino)-4-((2-(1-methyl-1H-pyrazol-3-yl)phenyl)amino)pyrimidin-5-carboxylate] | 25 to 50
